From patent US10765662B2, “Mono- or di-substituted indole derivatives as dengue viral replication inhibitors” (Janssen Pharmaceuticals, Inc., priority 2015, dated 2020) come the findings set out here.

Molecules are shown by their SMILES.

In data set [1] the test system is DENV-2 16681 strain labeled with enhanced green fluorescent protein. The data set can be described thus: DENV-2 antiviral assay (eGFP fluorescence read-out in Vero cells). Type of data set: cell-based, Dengue virus. The settings on record: DENV-2 16681 eGFP, MOI 0.5, 3 days. The method, then:
The antiviral activity of all the compounds of the invention was tested against the DENV-2 16681 strain which was labeled with enhanced green fluorescent protein (eGPF). The culture medium consists of minimal essential medium supplemented with 2% of heat-inactivated fetal calf serum, 0.04% gentamycin (50 mg/mL) and 2 mM of L-glutamine. Vero cells, obtained from ECACC, were suspended in culture medium and 25 μL was added to 384-well plates (2500 cells/well), which already contain the antiviral compounds. Typically, these plates contain a 5-fold serial dilution of 9 dilution steps of the test compound at 200 times the final concentration in 100% DMSO (200 nL). […] Finally, each plate contains wells which are assigned as virus controls (containing cells and virus in the absence of compound), cell controls (containing cells in the absence of virus and compound) and medium controls (containing medium in the absence of cells, virus and compounds). To the wells assigned as medium control, 25 μL of culture medium was added instead of Vero cells. Once the cells were added to the plates, the plates were incubated for 30 minutes at room temperature to allow the cells to distribute evenly within the wells. Next, the plates were incubated in a fully humidified incubator (37° C., 5% CO2) until the next day. Then, DENV-2 strain 16681, labeled with eGFP, was added at a multiplicity of infection (MOI) of 0.5. Therefore, 15 μL of virus suspension was added to all the wells containing test compound and to the wells assigned as virus control. In parallel, 15 μL of culture medium was added to the medium and cell controls. Next, the plates were incubated for 3 days in a fully humidified incubator (37° C., 5% CO2). At the day of the read out, the eGFP fluorescence was measured using an automated fluorescence microscope at 488 nm (blue laser). Using an in-house LIMS system, inhibition dose response curves for each compound were calculated and the half maximal effective concentration (EC50) was determined. Therefore, the percent inhibition (I) for every test concentration is calculated using the following formula: I=100*([…])/(SVC−SCC); ST, SCC and SVC are the amount of eGFP signal in the test compound, cell control and virus control wells, respectively. The EC50 represents the concentration of a compound at which the virus replication is inhibited with 50%, as measured by a 50% reduction of the eGFP fluorescent intensity compared to the virus control. The EC50 is calculated using linear interpolation (Table 1).

A short description of a further data set: in vitro. Type of data set: cell-based. The settings on record: African green monkey, CC50. The method, then:
(§1) In parallel, the toxicity of the compounds was assessed on the same plates. Once the read-out for the eGFP signal was done, 40 μL of ATPlite, a cell viability stain, was added to all wells of the 384-well plates. ATP is present in all metabolically active cells and the concentration declines very rapidly when the cells undergo necrosis or apoptosis. The ATPLite assay system is based on the production of light caused by the reaction of ATP with added luciferase and D-luciferin. The plates were incubated for 10 minutes at room temperature. Next, the plates were measured on a ViewLux. The half maximal cytotoxic concentration (CC50) was also determined, defined as the concentration required to reduce the luminescent signal by 50% compared to that of the cell control wells. Finally, the selectivity index (SI) was determined for the compounds, which was calculated as followed: SI=CC50/EC50.

The test system of the next data set is Vero cells. Description: in vitro. Type of data set: cell-based. The following applies: African green monkey. The method, then:
as §1

[2] abbreviates: Dengue virus, DENV2, Vero, 72 h.

Regarding `COc1cc(NC(C(=O)c2c[nH]c3cc(OC)c(OC(F)(F)F)cc23)c2ccc(Cl)cc2OCCO)cc(S(C)(=O)=O)c1` (single isomer, unassigned) [Compound 11A, 2-(4-chloro-2-(2-hydroxyethoxy)phenyl)-2-((3-methoxy-5-(methylsulfonyl)phenyl)amino)-1-(6-methoxy-5-(trifluoromethoxy)-1H-indol-3-yl)ethanone], in data set [1], the EC50 was 0.0015 µM. In the data set “in vitro”, this compound showed a CC50 greater than 2.3 µM.
As for `COc1cc(NC(C(=O)c2c[nH]c3cc(F)ccc23)c2ccc(Cl)cc2OCCO)cc(S(C)(=O)=O)c1` (racemic) [Compound 1, 2-(4-chloro-2-(2-hydroxyethoxy)phenyl)-1-(6-fluoro-1H-indol-3-yl)-2-((3-methoxy-5-(methylsulfonyl)phenyl)amino)ethanone], in data set [1] (setting [2]), the EC50 stood at 0.00043 µM. Besides, the half-maximal cytotoxic concentration (CC50) in the data set “in vitro” came out at 5.1 µM.
With `COc1cc(NC(C(=O)c2c[nH]c3cc(Cl)ccc23)c2ccc(Cl)cc2OCCO)cc(S(C)(=O)=O)c1` (single isomer, unassigned) [Compound 2B, 1-(6-chloro-1H-indol-3-yl)-2-(4-chloro-2-(2-hydroxyethoxy)phenyl)-2-((3-methoxy-5-(methylsulfonyl)phenyl)amino)ethanone], the EC50 in data set [1] came to 0.0049 µM. The compound further gave a CC50 in the data set with Vero cells of 11 µM.
As for `COc1cc(NC(C(=O)c2c[nH]c3c(C)cc(OC(F)(F)F)cc23)c2ccc(Cl)cc2OCCO)cc(S(C)(=O)=O)c1` (racemic) [Compound 12, 2-(4-chloro-2-(2-hydroxyethoxy)phenyl)-2-((3-methoxy-5-(methylsulfonyl)phenyl)amino)-1-(7-methyl-5-(trifluoromethoxy)-1H-indol-3-yl)ethanone], the EC50 in data set [1] (setting [2]) was found to be 0.0001 µM. The CC50 in the data set “in vitro” is 2.5 µM.
Taken in the same sequence, the figures for `COc1cc(NC(C(=O)c2c[nH]c3cc(F)c(C)cc23)c2ccc(Cl)cc2OCCO)cc(S(C)(=O)=O)c1` (racemic) [Compound 8, 2-(4-chloro-2-(2-hydroxyethoxy)phenyl)-1-(6-fluoro-5-methyl-1H-indol-3-yl)-2-((3-methoxy-5-(methylsulfonyl)phenyl)amino)ethanone] were 0.00027 µM and 2.8 µM.
Turning to `COc1cc(NC(C(=O)c2c[nH]c3cc(OC)c(C)cc23)c2ccc(Cl)cc2OCCO)cc(S(C)(=O)=O)c1` (racemic) [Compound 6, 2-(4-chloro-2-(2-hydroxyethoxy)phenyl)-2-((3-methoxy-5-(methylsulfonyl)phenyl)amino)-1-(6-methoxy-5-methyl-1H-indol-3-yl)ethanone], the EC50 in data set [1] (setting [2]) worked out at 0.00037 µM. This compound showed a CC50 in “in vitro” of 4.7 µM.
Taken in the same sequence, the figures for `COc1cc(NC(C(=O)c2c[nH]c3cc(F)c(F)cc23)c2ccc(Cl)cc2OCCO)cc(S(C)(=O)=O)c1` (racemic) [Compound 7, 2-(4-chloro-2-(2-hydroxyethoxy)phenyl)-1-(5,6-difluoro-1H-indol-3-yl)-2-((3-methoxy-5-(methylsulfonyl)phenyl)amino)ethanone] were 0.00026 µM and 2.8 µM.
Turning to `COc1cc(NC(C(=O)c2c[nH]c3c(C)c(F)ccc23)c2ccc(Cl)cc2OCCO)cc(S(C)(=O)=O)c1` (single isomer, unassigned) [Compound 4B, 2-(4-chloro-2-(2-hydroxyethoxy)phenyl)-1-(6-fluoro-7-methyl-1H-indol-3-yl)-2-((3-methoxy-5-(methylsulfonyl)phenyl)amino)ethanone], the EC50 in data set [1] is 0.011 µM. The compound also came in with a 50% cytotoxic concentration (CC50) in the data set with Vero cells of 5.7 µM.
As for `COc1cc(NC(C(=O)c2c[nH]c3ccc(OC(F)(F)F)cc23)c2ccc(Cl)cc2OCCO)cc(S(C)(=O)=O)c1` (racemic) [Compound 10, 2-(4-chloro-2-(2-hydroxyethoxy)phenyl)-2-((3-methoxy-5-(methylsulfonyl)phenyl)amino)-1-(5-(trifluoromethoxy)-1H-indol-3-yl)ethanone], the EC50 in data set [1] (setting [2]) is 0.0001 µM. Further, in “in vitro”, the CC50 was greater than 2.4 µM.
As to `COc1cc(NC(C(=O)c2c[nH]c3c(C)c(Cl)ccc23)c2ccc(Cl)cc2OCCO)cc(S(C)(=O)=O)c1` (single isomer, unassigned) [Compound 5A, 2-(4-chloro-2-(2-hydroxyethoxy)phenyl)-1-(6-chloro-7-methyl-1H-indol-3-yl)-2-((3-methoxy-5-(methylsulfonyl)phenyl)amino)ethanone], in data set [1], the EC50 was 0.0084 µM. In addition, the CC50 in the data set “in vitro” was 5 µM.
On to `COc1cc(NC(C(=O)c2c[nH]c3cc(F)c(F)cc23)c2ccc(Cl)cc2OCCO)cc(S(C)(=O)=O)c1` (single isomer, unassigned) [Compound 7B, 2-(4-chloro-2-(2-hydroxyethoxy)phenyl)-1-(5,6-difluoro-1H-indol-3-yl)-2-((3-methoxy-5-(methylsulfonyl)phenyl)amino)ethanone], for which the EC50 in data set [1] was 0.005 µM. The same compound yielded a CC50 in the data set with Vero cells of 9.2 µM.
For the compound `COc1cc(NC(C(=O)c2c[nH]c3c(C)cc(OC(F)(F)F)cc23)c2ccc(Cl)cc2OCCO)cc(S(C)(=O)=O)c1` (single isomer, unassigned) [Compound 12A, 2-(4-chloro-2-(2-hydroxyethoxy)phenyl)-2-((3-methoxy-5-(methylsulfonyl)phenyl)amino)-1-(7-methyl-5-(trifluoromethoxy)-1H-indol-3-yl)ethanone], the EC50 in data set [1] worked out at 0.005 µM. Besides, the CC50 in “in vitro” was 2.5 µM.
`COc1cc(NC(C(=O)c2c[nH]c3cc(F)c(C)cc23)c2ccc(Cl)cc2OCCO)cc(S(C)(=O)=O)c1` (single isomer, unassigned) [Compound 8B, 2-(4-chloro-2-(2-hydroxyethoxy)phenyl)-1-(6-fluoro-5-methyl-1H-indol-3-yl)-2-((3-methoxy-5-(methylsulfonyl)phenyl)amino)ethanone]: the EC50 in data set [1] came to 0.0017 µM. This compound also came in with a CC50 with Vero cells greater than 2.4 µM.
For the compound `COc1cc(NC(C(=O)c2c[nH]c3ccc(C(F)(F)F)cc23)c2ccc(Cl)cc2OCCO)cc(S(C)(=O)=O)c1` (single isomer, unassigned) [Compound 9A, 2-(4-chloro-2-(2-hydroxyethoxy)phenyl)-2-((3-methoxy-5-(methylsulfonyl)phenyl)amino)-1-(5-(trifluoromethyl)-1H-indol-3-yl)ethanone], in data set [1], the EC50 is 0.0019 µM. In the data set with Vero cells, this compound gave a CC50 of 11 µM.
Taken in the same sequence, the figures for `COc1cc(NC(C(=O)c2c[nH]c3cc(OC)c(C)cc23)c2ccc(Cl)cc2OCCO)cc(S(C)(=O)=O)c1` (single isomer, unassigned) [Compound 6B, 2-(4-chloro-2-(2-hydroxyethoxy)phenyl)-2-((3-methoxy-5-(methylsulfonyl)phenyl)amino)-1-(6-methoxy-5-methyl-1H-indol-3-yl)ethanone] were 0.036 µM and 5.9 µM.
With `COc1cc(NC(C(=O)c2c[nH]c3cc(F)ccc23)c2ccc(Cl)cc2OCCO)cc(S(C)(=O)=O)c1` (single isomer, unassigned) [Compound 1B, 2-(4-chloro-2-(2-hydroxyethoxy)phenyl)-1-(6-fluoro-1H-indol-3-yl)-2-((3-methoxy-5-(methylsulfonyl)phenyl)amino)ethanone], in data set [1], the EC50 was 0.0035 µM. The compound further gave a CC50 with Vero cells of 8.4 µM.
Consider `COc1cc(NC(C(=O)c2c[nH]c3ccc(OC(F)(F)F)cc23)c2ccc(Cl)cc2OCCO)cc(S(C)(=O)=O)c1` (single isomer, unassigned) [Compound 10A, 2-(4-chloro-2-(2-hydroxyethoxy)phenyl)-2-((3-methoxy-5-(methylsulfonyl)phenyl)amino)-1-(5-(trifluoromethoxy)-1H-indol-3-yl)ethanone], for which the EC50 in data set [1] amounted to 0.0029 µM. In the data set “in vitro”, half-maximal cytotoxicity (CC50) was put at 2.3 µM.
